Results taken from PubChem BioAssay (NCI).
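In this assay, cells in 96-well plates receive the compound at five concentrations for 48 hours. Endpoints are linearly interpolated between the surrounding concentrations. GI50 marks 50% less growth. TGI denotes the concentration required for complete inhibition of growth.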

Key:
Assay in all cases: NCI tumour cell line growth inhibition, 48 h
SW-620 colon = tested on: SW-620 colon
MALME-3M melanoma = tested on: MALME-3M melanoma
HL-60(TB) leukemia = tested on: HL-60(TB) leukemia
OVCAR-5 ovarian = tested on: OVCAR-5 ovarian
HT29 colon = tested on: HT29 colon
HCT-116 colon = tested on: HCT-116 colon
CAKI-1 renal = tested on: CAKI-1 renal
SK-OV-3 ovarian = tested on: SK-OV-3 ovarian
MDA-MB-435 = tested on: MDA-MB-435
PC-3 prostate = tested on: PC-3 prostate

Structure (SMILES) | TGI (SW-620 colon) [µM] | TGI (MALME-3M melanoma) [µM] | TGI (HL-60(TB) leukemia) [µM] | TGI (OVCAR-5 ovarian) [µM] | TGI (HT29 colon) [µM] | TGI (HCT-116 colon) [µM] | TGI (CAKI-1 renal) [µM] | TGI (SK-OV-3 ovarian) [µM] | GI50 (SW-620 colon) [nM] | GI50 (MDA-MB-435) [µM] | TGI (MDA-MB-435) [µM] | GI50 (CAKI-1 renal) [nM] | GI50 (HL-60(TB) leukemia) [nM] | GI50 (PC-3 prostate) [nM] | TGI (PC-3 prostate) [µM] | GI50 (OVCAR-5 ovarian) [µM] | GI50 (HT29 colon) [nM] | GI50 (HCT-116 colon) [nM] | GI50 (SK-OV-3 ovarian) [µM] | GI50 (MALME-3M melanoma) [nM]
COCCCNC(=O)CC(=O)NCCCOC | > 100 | > 100 | > 100 | > 100 | > 100 | > 100 | – | – | – | – | – | – | – | – | – | – | – | – | – | –
CCC(=O)c1c(NOC2OC(COC(C)=O)C(OC(C)=O)C(OC(C)=O)C2OC(C)=O)nc(OC)n(C)c1=O (stereo not given) | > 100 | – | – | > 100 | > 100 | > 100 | – | – | – | – | – | – | – | – | – | – | – | – | – | –
CC(=O)c1ccc(NC(=O)C(=O)Nn2c(=S)[nH]c3ccccc3c2=O)cc1 | > 100 | > 100 | > 100 | > 100 | > 100 | > 100 | > 100 | > 100 | – | – | – | – | – | – | – | – | – | – | – | –
C=C(Br)N(CC)CC | > 100 | > 100 | > 100 | > 100 | > 100 | > 100 | > 100 | > 100 | – | – | – | – | – | – | – | – | – | – | – | –
Fc1ccccc1C1CC(c2ccc3ccccc3c2)=Nc2ccccc2S1 (stereo not given) | > 100 | > 100 | > 100 | > 100 | > 100 | > 100 | > 100 | > 100 | – | – | – | – | – | – | – | – | – | – | – | –
C=C1CCC2C(C)(C)CCC[C@]2(C)[C@H]1CO (stereo not given in full) | > 100 | – | > 100 | > 100 | > 100 | > 100 | > 100 | – | > 100000 | 43.2 | > 100 | > 100000 | 15800 | 65800 | > 100 | 93.5 | 52700 | 30400 | – | –
CCCCS(=O)(=O)CCC(N)C(=O)O (stereo not given) | > 100 | > 100 | > 100 | > 100 | > 100 | > 100 | > 100 | > 100 | – | – | – | – | – | – | > 100 | – | – | – | – | –
COC1OC(COCc2ccc(Cl)cc2)C(OCc2ccc(Cl)cc2)C1N=[N+]=[N-] (stereo not given) | > 100 | > 100 | – | > 100 | > 100 | > 100 | > 100 | > 100 | – | – | – | – | – | – | – | – | – | – | – | –
COc1ccc(Cn2cc3c(c2-c2ccc(OC)cc2)CCc2cnoc2-3)cc1 | > 100 | – | 1.17 | > 100 | 1.24 | > 100 | > 100 | > 100 | 353 | 0.181 | 0.48 | 309 | 282 | 602 | > 100 | 2.68 | 309 | 451 | 0.571 | –
CCCCCCCCCCCCCP(=O)(O)OCC | > 100 | > 100 | > 100 | > 100 | > 100 | > 100 | – | – | – | – | – | – | – | – | – | – | – | – | – | –
O=C1C2C3C=CC(C2C(=O)N1COP(=O)(O)O)C1C2C(=O)N(COP(=O)(O)O)C(=O)C2C31 (stereo not given) | > 65.2 | > 100 | 29.9 | > 100 | > 100 | > 57.6 | > 100 | > 100 | – | – | – | – | – | – | – | – | – | – | – | –
N#CSCC1CC(O)(c2ccccc2)CC(c2ccc(F)cc2)O1 (stereo not given) | 3.74 | 6.44 | – | 5.28 | 4.19 | 2.98 | 8.5 | 15.7 | 2070 | 1.83 | 4.08 | 2540 | – | 2490 | 8.38 | 2.32 | 1970 | 1630 | 4.67 | 2140
O=C(Cc1nc2ccccc2s1)Nc1cccc(C(F)(F)F)c1 | 43.2 | 30.8 | 17.8 | 32.5 | 33.9 | – | 31.6 | 44.3 | – | – | – | – | – | – | – | – | – | – | – | –
CN(C)CCNC(=O)c1cccc2c1nc(-c1ccccc1)c1ccccc12 | 15.5 | – | 8 | 17.6 | 13.1 | 13 | 18.4 | 19.6 | – | – | – | – | – | – | – | – | – | – | – | –
Cc1c(COc2cc(OCc3cccc(C#N)c3)c(CN3C[C@H](O)C[C@@H]3C(=O)O)cc2Cl)cccc1-c1ccc2c(c1)OCCO2 | 31.5 | 28.9 | – | 31 | 48.2 | 4.18 | 27.6 | 37.7 | 16700 | 17 | 33.6 | 14500 | – | 2540 | 7.7 | 17.3 | 23200 | 1960 | 19.4 | 14700
c1cc(CNCCN2CCNCC2)ccn1 | > 100 | > 100 | – | > 100 | > 100 | > 100 | > 100 | > 100 | – | – | > 100 | – | – | – | > 100 | – | – | – | – | –
O=C(CCC(=O)C(C(=O)c1ccccc1)c1ccccc1)Nc1cccc(C(F)(F)F)c1 (stereo not given) | > 100 | > 100 | > 100 | > 100 | > 100 | > 100 | > 100 | > 100 | – | – | – | – | – | – | – | – | – | – | – | –
Cc1ccc(S(=O)(=O)OCC23CCC(CC2)C2CC23)cc1 (stereo not given) | > 100 | > 100 | 39.1 | > 100 | > 100 | > 100 | > 100 | > 100 | – | – | – | – | – | – | – | – | – | – | – | –
CC1(C)Cc2cc(C(=O)O)c3c(c2C1=O)COCC3 | > 100 | > 100 | > 100 | > 100 | > 100 | > 100 | > 100 | > 100 | – | – | – | – | – | – | – | – | – | – | – | –
CS(=O)(=O)N(N(CCCl)S(=O)(=O)c1ccccc1)S(C)(=O)=O | > 100 | > 100 | > 100 | – | > 100 | > 100 | > 100 | – | – | – | – | – | – | – | – | – | – | – | – | –
COC(=O)CCC(=O)CC(=O)C(=O)Nc1c(Cl)cc([N+](=O)[O-])cc1Cl | – | > 100 | > 100 | > 100 | > 100 | > 100 | > 100 | > 100 | – | – | – | – | – | – | – | – | – | – | – | –
COc1ccc(Nc2c3ccccc3nc3ccccc23)cc1 | 14.4 | 9.05 | 4.1 | 23 | 2.71 | 11.5 | 10.4 | 16.2 | 599 | – | – | 1210 | 1690 | – | – | 6.15 | 454 | 576 | 3.66 | 1830
